Data: US8546377B2 (AbbVie Inc., priority 2009, dated 2013)
Read-outs that look alike come from different tables or passages of the source.

How the values were obtained:
5HT2B receptors = target: T1, 5HT2B receptors (Homo sapiens, UniProt P41595); assay: Human 5-HT2B functional assay in CHO-K1 cells (calcium flux, FLIPR); assay type: cell-based
T1 construct: expressed in transfected cells; host or cells: CHO-K1 cells
How it was run: (§1)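 EC50 came from a 4-parameter logistic fit, with Emax expressed relative to serotonin, of intracellular Ca2+ rises read on FLIPR at 480/530 nm, 25° C, over 3 min. Compounds ran from 10 μM in six 1:10 steps (0.2% DMSO) on serum-starved CHO-K1 transfectants pre-loaded 60 min with Ca4 dye and probenecid.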

5HT2C receptors = target: T2, 5HT2C receptors (Homo sapiens, UniProt P28335); assay: Human 5-HT2C functional assay in CHO-K1 cells (calcium flux, FLIPR); assay type: cell-based; design: expressed in transfected cells; host or cells: CHO-K1 cells; conditions: for Emax: percentage relative to the effect of serotonin
T2 sequence (P28335 33-458): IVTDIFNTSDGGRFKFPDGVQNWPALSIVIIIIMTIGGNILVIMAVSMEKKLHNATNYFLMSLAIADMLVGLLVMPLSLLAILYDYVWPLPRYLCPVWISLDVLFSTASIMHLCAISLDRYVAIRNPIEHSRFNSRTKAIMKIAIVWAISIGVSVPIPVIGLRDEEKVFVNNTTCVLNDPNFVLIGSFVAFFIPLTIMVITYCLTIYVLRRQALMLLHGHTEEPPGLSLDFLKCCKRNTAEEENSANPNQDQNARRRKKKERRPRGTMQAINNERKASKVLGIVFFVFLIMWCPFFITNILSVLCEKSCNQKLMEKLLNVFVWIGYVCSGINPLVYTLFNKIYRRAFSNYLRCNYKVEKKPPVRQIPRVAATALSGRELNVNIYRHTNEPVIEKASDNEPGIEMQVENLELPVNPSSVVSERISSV
How it was run: as §1

[1] = CHO-K1 cells over-expressing 5HT2B, calcium flux, read-out: EC50 (μM), 5-HT2B Agonist Activity
[2] = CHO-K1 cells over-expressing 5HT2C, calcium flux, read-out: EC50 (μM), 5-HT2c Agonist Activity
[3] = CHO-K1 cells, read-out: Emax (%), 5-HT2c Agonist Activity
[4] = CHO-K1 cells, percentage relative to the effect of serotonin, read-out: Emax (%), 5-HT2B Agonist Activity
[5] = CHO-K1, read-out: Emax (%), 5-HT2c Agonist Activity, CHO-K1 cells
[6] = CHO-K1, read-out: Emax (%), 5-HT2B Agonist Activity

T1 sequence (P41595 whole entry): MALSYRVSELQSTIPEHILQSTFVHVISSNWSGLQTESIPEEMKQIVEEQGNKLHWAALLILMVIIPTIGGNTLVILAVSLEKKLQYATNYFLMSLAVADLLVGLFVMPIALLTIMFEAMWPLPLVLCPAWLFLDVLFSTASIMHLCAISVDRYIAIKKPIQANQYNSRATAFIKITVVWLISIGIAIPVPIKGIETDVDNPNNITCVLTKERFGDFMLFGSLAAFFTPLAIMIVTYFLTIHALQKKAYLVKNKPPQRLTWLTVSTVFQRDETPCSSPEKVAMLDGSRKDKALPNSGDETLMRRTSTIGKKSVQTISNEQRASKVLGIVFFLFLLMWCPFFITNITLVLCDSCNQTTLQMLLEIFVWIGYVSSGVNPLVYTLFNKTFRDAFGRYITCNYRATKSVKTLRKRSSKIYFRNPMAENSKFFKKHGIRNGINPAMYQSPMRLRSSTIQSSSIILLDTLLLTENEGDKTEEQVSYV

SMILES	EC50 (5HT2B receptors; [1]) [µM]	EC50 (5HT2C receptors; [2]) [µM]	Emax (5HT2C receptors; [3]) [%]	Emax (5HT2B receptors; [4]) [%]	EC50 (5HT2B receptors) [µM]	EC50 (5HT2C receptors) [µM]	Emax (5HT2C receptors; [5]) [%]	Emax (5HT2B receptors; [6]) [%]
Oc1cccc(-c2ccc3c(c2)N2CCNC[C@@H]2CCO3)c1 [Example 201, 3-[(4aS)-2,3,4,4a,5,6-hexahydro-1H-pyrazino[2,1-d][1,5]benzoxazepin-10-yl]phenol]	> 10	0.2	> 120					
Fc1cccc(-c2ccc3c(c2)N2CCNC[C@@H]2CCO3)c1 [Example 204, (4aS)-10-(3-fluorophenyl)-2,3,4,4a,5,6-hexahydro-1H-pyrazino[2,1-d][1,5]benzoxazepine]	> 10	0.05	> 120					
c1cncc(-c2ccc3c(c2)N2CCNC[C@@H]2CCO3)c1 [Example 206, (4aS)-10-(pyridin-3-yl)-2,3,4,4a,5,6-hexahydro-1H-pyrazino[2,1-d][1,5]benzoxazepine]					> 10	0.07	> 120	
c1cc(-c2ccc3c(c2)N2CCNC[C@@H]2CCO3)ccn1 [Example 207, (4aS)-10-(pyridin-4-yl)-2,3,4,4a,5,6-hexahydro-1H-pyrazino[2,1-d][1,5]benzoxazepine]	> 10	0.8					> 120	
C1=C(c2ccc3c(c2)N2CCNC[C@@H]2CCO3)CCCC1 [Example 209, (4aS)-10-(cyclohex-1-en-1-yl)-2,3,4,4a,5,6-hexahydro-1H-pyrazino[2,1-d][1,5]benzoxazepine]	> 10	0.01	> 120					
CCc1ccc2c(c1)N1CCNC[C@@H]1CCO2 [Example 211, (4aS)-10-ethyl-2,3,4,4a,5,6-hexahydro-1H-pyrazino[2,1-d][1,5]benzoxazepine]					0.04	0.02	70	45
Clc1cc2c(cc1Cl)N1CCNC[C@@H]1CCO2 [Example 214, (4aS)-9,10-dichloro-2,3,4,4a,5,6-hexahydro-1H-pyrazino[2,1-d][1,5]benzoxazepine]					0.03	0.002	> 120	60
FC(F)(F)c1cccc2c1OCC[C@H]1CNCCN21 [Example 215, (4aS)-8-(trifluoromethyl)-2,3,4,4a,5,6-hexahydro-1H-pyrazino[2,1-d][1,5]benzoxazepine]	> 10	0.003	110					
FC(F)(F)c1ccc2c(c1)OCC[C@H]1CNCCN21 [Example 216, (4aS)-9-(trifluoromethyl)-2,3,4,4a,5,6-hexahydro-1H-pyrazino[2,1-d][1,5]benzoxazepine]	> 10	0.07	55					
Fc1ccc2c(c1F)OCC[C@H]1CNCCN21 [Example 218, (4aS)-8,9-difluoro-2,3,4,4a,5,6-hexahydro-1H-pyrazino[2,1-d][1,5]benzoxazepine]					0.07	0.002	100	20
CN1CCN2c3ccc(Cl)cc3OCC[C@H]2C1 [Example 220, (4aS)-9-chloro-3-methyl-2,3,4,4a,5,6-hexahydro-1H-pyrazino[2,1-d][1,5]benzoxazepine]					> 10	0.04	40	

Continued, in another order:

EC50 (5HT2B receptors; [1]) [µM]	EC50 (5HT2C receptors; [2]) [µM]	Emax (5HT2C receptors; [3]) [%]	Emax (5HT2B receptors; [4]) [%]	SMILES	EC50 (5HT2B receptors) [µM]	EC50 (5HT2C receptors) [µM]	Emax (5HT2C receptors; [5]) [%]	Emax (5HT2B receptors; [6]) [%]
> 10	0.009	> 120		CS(=O)(=O)c1cccc(-c2ccc3c(c2)N2CCNC[C@@H]2CCO3)c1 [Example 196, (4aS)-10-[3-(methylsulfonyl)phenyl]-2,3,4,4a,5,6-hexahydro-1H-pyrazino[2,1-d][1,5]benzoxazepine]				
1	0.07	> 120	15	CC(=O)c1ccccc1-c1ccc2c(c1)N1CCNC[C@@H]1CCO2 [Example 197, 1-{2-[(4aS)-2,3,4,4a,5,6-hexahydro-1H-pyrazino[2,1-d][1,5]benzoxazepin-10-yl]phenyl}ethanone]				
1	0.01	> 120	25	CC(=O)c1cccc(-c2ccc3c(c2)N2CCNC[C@@H]2CCO3)c1 [Example 198, 1-{3-[(4aS)-2,3,4,4a,5,6-hexahydro-1H-pyrazino[2,1-d][1,5]benzoxazepin-10-yl]phenyl}ethanone]				
8	0.9	> 120	10	CC(=O)c1ccc(-c2ccc3c(c2)N2CCNC[C@@H]2CCO3)cc1 [Example 199, 1-{4-[(4aS)-2,3,4,4a,5,6-hexahydro-1H-pyrazino[2,1-d][1,5]benzoxazepin-10-yl]phenyl}ethanone]				
> 10	0.01	> 120		Oc1ccccc1-c1ccc2c(c1)N1CCNC[C@@H]1CCO2 [Example 200, 2-[(4aS)-2,3,4,4a,5,6-hexahydro-1H-pyrazino[2,1-d][1,5]benzoxazepin-10-yl]phenol]				
1	0.005	> 120	15	Oc1ccc(-c2ccc3c(c2)N2CCNC[C@@H]2CCO3)cc1 [Example 202, 4-[(4aS)-2,3,4,4a,5,6-hexahydro-1H-pyrazino[2,1-d][1,5]benzoxazepin-10-yl]phenol]				
2	0.02	> 120	15	Fc1ccccc1-c1ccc2c(c1)N1CCNC[C@@H]1CCO2 [Example 203, (4aS)-10-(2-fluorophenyl)-2,3,4,4a,5,6-hexahydro-1H-pyrazino[2,1-d][1,5]-benzoxazepine]				
5	0.05	> 120	10	Fc1ccc(-c2ccc3c(c2)N2CCNC[C@@H]2CCO3)cc1 [Example 205, (4aS)-10-(4-fluorophenyl)-2,3,4,4a,5,6-hexahydro-1H-pyrazino[2,1-d][1,5]benzoxazepine]				
0.1	0.001	> 120	50	CC(C)=Cc1ccc2c(c1)N1CCNC[C@@H]1CCO2 [Example 208, (4aS)-10-(2-methylprop-1-en-1-yl)-2,3,4,4a,5,6-hexahydro-1H-pyrazino[2,1-d][1,5]benzoxazepine]				
1	0.01	> 120	20	C1=C(c2ccc3c(c2)N2CCNC[C@@H]2CCO3)CCOC1 [Example 210, (4aS)-10-(3,6-dihydro-2H-pyran-4-yl)-2,3,4,4a,5,6-hexahydro-1H-pyrazino[2,1-d][1,5]benzoxazepine]				
0.4	0.007	80	45	c1ccc(CCc2ccc3c(c2)N2CCNC[C@@H]2CCO3)cc1 [Example 212, (4aS)-10-(2-phenylethyl)-2,3,4,4a,5,6-hexahydro-1H-pyrazino[2,1-d][1,5]benzoxazepine]				
1	0.03	120	25	CC(C)Cc1ccc2c(c1)N1CCNC[C@@H]1CCO2 [Example 213, (4aS)-10-isobutyl-2,3,4,4a,5,6-hexahydro-1H-pyrazino[2,1-d][1,5]benzoxazepine]				
0.09	0.01	100	70	FC(F)(F)c1ccc2c(c1)N1CCNC[C@@H]1CCO2 [Example 217, (4aS)-10-(trifluoromethyl)-2,3,4,4a,5,6-hexahydro-1H-pyrazino[2,1-d][1,5]benzoxazepine]				
